Experimental findings from US20010044445A1, “AZOLE INHIBITORS OF CYTOKINE PRODUCTION” (priority 1999, published 2001) are described below.

The structures appear in SMILES notation.

The test system of series [1] is Human peripheral blood mononuclear cells. Description: Human Concanavalin-A Proliferation Assay (Con HU Assay). The series is classed as cell-based. As to conditions: Homo sapiens, PBMC, concanavalin-A stimulated human PBMC; for inhibition at 10 µM / inhibition at 1 µM / inhibition at 100 µM: 72 h, 3 days, read-out: % Inhibition of proliferation (at concentrations of 1,10, or 100 μm); for inhibition at 10 µM: concentration 10 μm (in parentheses in the cell); for IC50: tritiated thymidine; for inhibition at 1 µM: concentration 1 μm (in parentheses in the cell); for inhibition at 100 µM: concentration 100 μm (in parentheses in the cell). A digest of the protocol: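 Histopaque-isolated human PBMC (50,000/well) were pre-incubated 15 min with compounds, then stimulated with concanavalin-A at 2.5 μg/ml final for 3 days at 37 °C, 5% CO2. Proliferation measured by 6 h pulse with 0.5 μCi/well [3H]thymidine and beta counting.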

The term melting point denotes the temperature of the solid-liquid transition. What is called IC50 is the concentration that inhibits the measured activity by half. Low readings indicate higher potency, high ones lower potency.

In turn, `O=C(Nc1ccc(-n2nc(C(F)(F)F)cc2C(F)(F)F)cc1)c1c(F)c(F)cc(F)c1F` [Example 234, N-[4-[3,5-bis(trifluoromethyl)-1H-pyrazol-1-yl]phenyl]-2,3,5,6-tetrafluorobenzamide] came in with a melting point of 235 to 237 °C. Further, in series [1], the inhibition at 10 µM was 99% and half-maximal inhibition (IC50) required 61 nM.
In turn, `O=C(Nc1ccc(-n2nc(C3CCCO3)cc2C(F)(F)F)cc1)c1ccncc1F` (centres unmarked) [Example 345, 3-fluoro-N-(4-(3-tetrahydro-2-furanyl-5-(trifluoromethyl)-1H-pyrazol-1-yl)phenyl)isonicotinamide] yielded a melting point of 116 to 118 °C. This compound also gave an IC50 in series [1] of 273 nM.
Take `COc1cc(C(F)(F)F)nn1-c1ccc(NC(=O)c2cccnc2F)cc1` [Example 317, 2-fluoro-N-(4-(5-methoxy-3-(trifluoromethyl)-1H-pyrazol-1-yl)phenyl)nicotinamide]: the melting point was in the range of 153 to 154 °C. Further, half-maximal inhibition in series [1] (IC50) required 186 nM.
The compound `O=C(Nc1ccc(-n2nc(C(F)(F)F)cc2C(F)(F)F)cc1)c1c(F)cccc1C(F)(F)F` [Example 213, N-[4-[3,5-bis(trifluoromethyl)-1H-pyrazol-1-yl]phenyl]-2-fluoro-6-(trifluoromethyl)benzamide] displayed a melting point of 175 to 176 °C. For the same compound, in series [1], the inhibition at 10 µM was 100% and the IC50 turned out to be 434 nM.
Compound `COc1cccc2cc(C(=O)Nc3ccc(-n4nc(C(F)(F)F)cc4C(F)(F)F)cc3)oc12` [Example 49, N-[4-[3,5-bis(trifluoromethyl)-1H-pyrazol-1-yl]phenyl]-7-methoxy-2-benzofurancarboxamide] gave a melting point of 109 to 110 °C. Further, in series [1], the inhibition at 1 µM worked out at 9%.
For the compound `O=C(Nc1ccc(-n2nc(C(F)(F)F)cc2C(F)(F)F)cc1)C1CC1` [Example 1, N-[4-[3,5-bis(trifluoromethyl)-1H-pyrazol-1-yl]phenyl]cyclopropanecarboxamide], the melting point fell in the range of 204 to 205 °C. Besides, in series [1], the inhibition at 1 µM turned out to be 68%.
Compound `Fc1ccc(NCc2ccc(-n3nc(C(F)(F)F)cc3C(F)(F)F)cc2)cc1` [Example 94, 4-[3,5-Bis(trifluoromethyl)-1H-pyrazol-1-yl]-N-(4-fluorophenyl)benzenemethanamine] had a melting point of 102 to 103 °C. In addition, in series [1], the inhibition at 10 µM is 3%.
Compound `O=C(Nc1ccc(-n2nc(C(F)(F)F)cc2Cl)cc1)c1ccncc1F` [Example 328, N-(4-(5-chloro-3-(trifluoromethyl)-1H-pyrazol-1-yl)phenyl)-3-fluoroisonicotinamide] showed a melting point of 128 to 129 °C. In series [1], this compound returned an IC50 of 75 nM.
On to `Fc1ccc(CNc2ccc(-n3nc(C(F)(F)F)cc3C(F)(F)F)cc2)cc1` [Example 84, N-[4-[3,5-bis(trifluoromethyl)-1H-pyrazol-1-yl]phenyl]-4-fluorobenzenemethanamine], for which the melting point lay in the range of 92 to 94 °C. Besides, in series [1], the inhibition at 1 µM was found to be 76% and 712 nM corresponded to half-maximal inhibition (IC50).
As to `COC(=O)c1ccc(C(=O)Nc2ccc(-n3nc(C(F)(F)F)cc3C(F)(F)F)cc2)cc1` [Example 142, methyl 4-[[[4-[3,5-bis(trifluoromethyl)-1H-pyrazol-1-yl]phenyl]amino]carbonyl]benzoate], the melting point fell in the range of 195 to 196 °C. Besides, in series [1], the inhibition at 10 µM was determined as 99% and the IC50 turned out to be 489 nM.
`Cc1noc(C)c1C(=O)Nc1ccc(-n2nc(C(F)(F)F)cc2C(F)(F)F)c(Cl)c1` [Example 277, N-[4-[3,5-bis(trifluoromethyl)-1H-pyrazol-1-yl]-3-chlorophenyl]-3,5-dimethyl-4-isoxazolecarboxamide] had a melting point of 64 to 65 °C. Moreover, in series [1], the inhibition at 100 µM was determined as 99% and it took 1060 nM to reach half-maximal inhibition (IC50).
The compound `O=C(Nc1ccc(-n2nc(C(F)(F)F)cc2C(F)(F)F)cc1)c1ccc(I)cc1` [Example 69, N-[4-[3,5-bis(trifluoromethyl)-1H-pyrazol-1-yl]phenyl]-4-iodobenzamide] registered a melting point of 196 to 198 °C. Further, in series [1], the inhibition at 100 µM was 98% and the IC50 was 506 nM.
Turning to `CN(C)c1cccc(C(=O)Nc2ccc(-n3nc(C(F)(F)F)cc3C(F)(F)F)cc2)c1` [Example 88, N-[4-[3,5-bis(trifluoromethyl)-1H-pyrazol-1-yl]phenyl]-3-(dimethylamino)benzamide], the melting point is 180 to 181 °C. Besides, in series [1], the inhibition at 1 µM came to 29%.
For `C=C(C)C(=O)Nc1ccc(-n2nc(C(F)(F)F)cc2C(F)(F)F)cc1` [Example 295, N-(4-(3,5-bis(trifluoromethyl)-1H-pyrazol-1-yl)phenyl)-2-methylacrylamide], the melting point lay in the range of 160 to 162 °C. The same compound showed an IC50 in series [1] of 232 nM.
Compound `CC1CC1C(=O)Nc1ccc(-n2nc(C(F)(F)F)cc2C(F)(F)F)cc1` (centres unmarked) [Example 7, N-[4-[3,5-bis(trifluoromethyl)-1H-pyrazol-1-yl]phenyl]-2-methylcyclopropanecarboxamide] had a melting point of 172 to 173 °C. Further, in series [1], the inhibition at 10 µM came to 97% and the IC50 came to 403 nM.
In the case of `Nc1ccccc1C(=O)Nc1ccc(-n2nc(C(F)(F)F)cc2C(F)(F)F)cc1` [Example 163, 2-amino-N-[4-[3,5-bis(trifluoromethyl)-1H-pyrazol-1-yl]phenyl]benzamide], the melting point is 204 to 206 °C. Further, in series [1], the inhibition at 100 µM is 98% and half-maximal inhibition (IC50) required 235 nM.
As for `CCCCCc1ccc(C(=O)Nc2ccc(-n3nc(C(F)(F)F)cc3C(F)(F)F)cc2)c(=O)o1` [Example 4, N-[4-[3,5-bis(trifluoromethyl)-1H-pyrazol-1-yl]phenyl]-2-oxo-6-pentyl-2H-pyran-3-carboxamide], the melting point was 140 to 141 °C. In series [1], the inhibition at 100 µM came to 82% and inhibition was half-maximal at 28800 nM (IC50).
As for `O=C(Nc1ccc(-n2nc(-c3ccoc3)cc2Cl)cc1)c1ccncc1F` [Example 356, N-(4-(5-chloro-3-(3-furyl)-1H-pyrazol-1-yl)phenyl)-3-fluoroisonicotinamide], the melting point fell in the range of 165 to 166 °C. Half-maximal inhibition in series [1] (IC50) was put at 247 nM.
With `O=C(Nc1ccc(-n2nc(C(F)(F)F)cc2C(F)(F)F)cc1)c1ccc([N+](=O)[O-])o1` [Example 247, N-[4-[3,5-bis(trifluoromethyl)-1H-pyrazol-1-yl]phenyl]-5-nitro-2-furancarboxamide], the melting point was 198 to 199 °C. In series [1], the inhibition at 10 µM amounted to 97% and the IC50 amounted to 375 nM.
Regarding `O=C(Nc1ccc(-n2nc(C(F)(F)F)cc2C(F)(F)F)cc1)c1ccc(Cl)nc1` [Example 249, N-[4-[3,5-bis(trifluoromethyl)-1H-pyrazol-1-yl]phenyl]-6-chloro-3-pyridinecarboxamide], the melting point was 192 to 194 °C. Further, in series [1], the inhibition at 10 µM came out at 100% and the 50% inhibitory concentration (IC50) amounted to 182 nM.
In turn, `O=C(Nc1ccc(-n2nc(C(F)(F)F)cc2C(F)(F)F)cc1)c1cc(F)ccc1F` [Example 211, N-[4-[3,5-bis(trifluoromethyl)-1H-pyrazol-1-yl]phenyl]-2,5-difluorobenzamide] gave a melting point of 168 to 169 °C. Also, in series [1], the inhibition at 10 µM came out at 98% and the midpoint of inhibition, the IC50, lay at 39 nM.
For `CC#CC(=O)Nc1ccc(-n2nc(C(F)(F)F)cc2C(F)(F)F)cc1` [Example 12, N-[4-[3,5-bis(trifluoromethyl)-1H-pyrazol-1-yl]phenyl]-2-butynamide], in that order: 220 to 221 °C, 98% and 427 nM.
Consider `O=C(Nc1ccc(-n2nc(C(F)(F)F)cc2C(F)(F)F)cc1)c1ccccc1[N+](=O)[O-]` [Example 136, N-[4-[3,5-bis(trifluoromethyl)-1H-pyrazol-1-yl]phenyl]-2-nitrobenzamide], for which the melting point was 174 to 176 °C. Besides, in series [1], the inhibition at 100 µM is 99% and the IC50 worked out at 222 nM.
In turn, `CCC(NC(=O)OCc1ccccc1)C(=O)Nc1ccc(-n2nc(C(F)(F)F)cc2C(F)(F)F)cc1` (centres unmarked) [Example 28, phenylmethyl [1-[[[4-[3,5-bis(trifluoromethyl)-1H-pyrazol-1-yl]phenyl]amino]carbonyl]propyl]carbamate] displayed a melting point of 158 to 160 °C. Moreover, the inhibition at 1 µM in series [1] was 12%.
As for `O=C(Nc1ccc(-n2nc(C(F)(F)F)cc2C(F)(F)F)cc1)c1cccnc1` [Example 106, N-[4-[3,5-bis(trifluoromethyl)-1H-pyrazol-1-yl]phenyl]-3-pyridinecarboxamide], the melting point was 185 to 188 °C. In series [1], the inhibition at 10 µM was 100% and the IC50 is 237 nM.
In turn, `O=C(Nc1ccc(-n2nc(C(F)(F)F)cc2C(F)(F)F)cc1)c1cnc(Cl)c(Cl)c1` [Example 268, N-[4-[3,5-bis(trifluoromethyl)-1H-pyrazol-1-yl]phenyl]-5,6-dichloro-3-pyridinecarboxamide] displayed a melting point of 175 to 177 °C. In addition, in series [1], the inhibition at 10 µM was 100% and the IC50 amounted to 347 nM.
Compound `O=C(Nc1ccc(-n2nc(C(F)(F)F)cc2C(F)(F)F)cc1)c1cccc(Cl)c1F` [Example 214, N-[4-[3,5-bis(trifluoromethyl)-1H-pyrazol-1-yl]phenyl]-3-chloro-2-fluorobenzamide] yielded a melting point of 113 to 116 °C. In series [1], the inhibition at 10 µM worked out at 100% and the IC50 worked out at 68 nM.
